ChEMBL document CHEMBL1201862, “PubChem BioAssay data set” (2004)
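Briefly, cells in 96-well plates were exposed to five compound concentrations for 48 h, and endpoints were estimated by linear interpolation. Abbreviation: GI50, concentration required for 50% inhibition of growth.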 Activity calls are given as the source filed them. Rule as the data show it: active = GI50 up to about 1.1 µM and inactive = higher.

Legend:
Experiment in all cases: growth of human tumour cells (NCI), 48 h
ACHN = tested on: ACHN
SNB-75 = tested on: SNB-75
SNB-19 = tested on: SNB-19
CAKI-1 = tested on: CAKI-1
CCRF-CEM = tested on: CCRF-CEM
HT-29 = tested on: HT-29
KM12 = tested on: KM12
LOX IMVI = tested on: LOX IMVI
A549 = tested on: A549
MDA-MB-435 = tested on: MDA-MB-435
SN12C = tested on: SN12C
NCI-H23 = tested on: NCI-H23
IGROV-1 = tested on: IGROV-1
OVCAR-5 = tested on: OVCAR-5
M14 = tested on: M14
Malme-3M = tested on: Malme-3M
U-251 = tested on: U-251
NCI/ADR-RES = tested on: NCI/ADR-RES
SK-MEL-2 = tested on: SK-MEL-2

Measured: GI50

Clc1ccc2[nH]c(CC3CCCC3)nc2c1
inactive: ACHN 17.1 µM | SNB-75 24.4 µM | SNB-19 23.4 µM | CAKI-1 3.31 µM | CCRF-CEM 26.2 µM | HT-29 12.2 µM | KM12 14.5 µM | LOX IMVI 15.8 µM | A549 21.7 µM | MDA-MB-435 6.52 µM | SN12C 16.9 µM | NCI-H23 15.1 µM | IGROV-1 4.29 µM | OVCAR-5 24.5 µM | M14 18.3 µM | Malme-3M 25.5 µM | U-251 17.6 µM | NCI/ADR-RES 13.8 µM | SK-MEL-2 17.9 µM

O=C(Cc1ccc([N+](=O)[O-])cc1)OCC#CCOC(=O)Cc1ccc([N+](=O)[O-])cc1
inactive: ACHN > 10 µM | SNB-75 > 10 µM | SNB-19 > 10 µM | CCRF-CEM > 10 µM | HT-29 > 10 µM | KM12 > 10 µM | LOX IMVI > 10 µM | A549 > 10 µM | MDA-MB-435 > 10 µM | SN12C > 10 µM | NCI-H23 > 10 µM | IGROV-1 > 10 µM | OVCAR-5 > 10 µM | M14 > 10 µM | Malme-3M > 10 µM | U-251 > 10 µM | NCI/ADR-RES > 10 µM | SK-MEL-2 > 10 µM

CC12CCC(C(=O)n3c1nc1ccccc13)C(C)(C)O2 (configuration not stated)
inactive: ACHN > 100 µM | SNB-75 15.6 µM | SNB-19 > 100 µM | CAKI-1 > 100 µM | CCRF-CEM > 100 µM | HT-29 > 100 µM | KM12 > 100 µM | LOX IMVI > 100 µM | A549 > 100 µM | MDA-MB-435 > 100 µM | SN12C > 100 µM | NCI-H23 > 100 µM | IGROV-1 > 100 µM | OVCAR-5 > 100 µM | M14 > 100 µM | Malme-3M > 100 µM | U-251 > 100 µM | NCI/ADR-RES > 100 µM | SK-MEL-2 > 100 µM

CC1CC(C#N)=C2NCCCCN2C1=O (configuration not stated)
inactive: SNB-75 > 100 µM | SNB-19 > 100 µM | CAKI-1 > 100 µM | CCRF-CEM > 100 µM | HT-29 > 100 µM | KM12 > 100 µM | LOX IMVI > 100 µM | A549 > 100 µM | MDA-MB-435 > 100 µM | SN12C > 100 µM | NCI-H23 > 100 µM | IGROV-1 > 100 µM | M14 > 100 µM | Malme-3M > 100 µM | U-251 > 100 µM | NCI/ADR-RES > 100 µM | SK-MEL-2 > 100 µM

O=[N+]([O-])c1ccc2c(c1)nc1n2C(c2c(F)cccc2F)SC1 (configuration not stated)
inactive: ACHN > 100 µM | SNB-75 84.7 µM | SNB-19 > 100 µM | CCRF-CEM > 100 µM | HT-29 > 100 µM | KM12 > 100 µM | LOX IMVI > 100 µM | A549 > 100 µM | MDA-MB-435 > 100 µM | SN12C > 100 µM | NCI-H23 > 100 µM | IGROV-1 > 100 µM | OVCAR-5 > 100 µM | M14 > 100 µM | Malme-3M > 100 µM | U-251 > 74.1 µM | NCI/ADR-RES > 100 µM | SK-MEL-2 > 100 µM

CC(=O)OCC1OC(n2cnc(C(N)=S)c2N)C(OC(C)=O)C1OC(C)=O (configuration not stated)
inactive: ACHN > 100 µM | SNB-75 > 100 µM | SNB-19 > 100 µM | CAKI-1 > 100 µM | CCRF-CEM > 100 µM | HT-29 > 100 µM | KM12 > 100 µM | LOX IMVI > 100 µM | A549 > 100 µM | MDA-MB-435 > 100 µM | SN12C > 100 µM | NCI-H23 > 100 µM | IGROV-1 > 100 µM | OVCAR-5 > 100 µM | M14 > 100 µM | Malme-3M > 100 µM | U-251 > 100 µM | NCI/ADR-RES > 100 µM | SK-MEL-2 > 100 µM

COc1ccc2c(c1)[C@@]13CCCC[C@H]1[C@@H](C2)N(C)CC3=O
inactive: ACHN 16.6 µM | SNB-19 76.9 µM | CAKI-1 28.3 µM | CCRF-CEM 19.2 µM | HT-29 21.5 µM | KM12 18.1 µM | LOX IMVI 16.9 µM | A549 19.9 µM | MDA-MB-435 19 µM | SN12C 21.4 µM | NCI-H23 17.5 µM | IGROV-1 17.4 µM | OVCAR-5 17.3 µM | M14 16.1 µM | Malme-3M 18.5 µM | U-251 22.2 µM | NCI/ADR-RES 26.9 µM | SK-MEL-2 25.2 µM

Clc1cc2nc(C3CCCCO3)[nH]c2cc1Cl (configuration not stated)
inactive: ACHN 54.8 µM | SNB-75 15.2 µM | SNB-19 39.7 µM | CAKI-1 29.1 µM | CCRF-CEM 35.3 µM | HT-29 3.5 µM | KM12 10.6 µM | LOX IMVI 20.3 µM | A549 15.1 µM | MDA-MB-435 7.67 µM | SN12C 38.9 µM | NCI-H23 18 µM | IGROV-1 24 µM | OVCAR-5 > 63.1 µM | M14 28.5 µM | Malme-3M 38.5 µM | U-251 34.3 µM | NCI/ADR-RES 12.1 µM | SK-MEL-2 > 100 µM

CN(c1ccccc1Cl)S(=O)(=O)c1ccc([N+](=O)[O-])cc1
inactive: ACHN > 100 µM | SNB-75 > 100 µM | SNB-19 > 100 µM | CAKI-1 > 100 µM | CCRF-CEM > 100 µM | HT-29 > 100 µM | KM12 > 100 µM | LOX IMVI > 100 µM | A549 > 100 µM | MDA-MB-435 > 100 µM | SN12C > 100 µM | NCI-H23 > 100 µM | IGROV-1 > 100 µM | OVCAR-5 > 100 µM | M14 > 100 µM | Malme-3M > 100 µM | U-251 > 100 µM | NCI/ADR-RES > 100 µM | SK-MEL-2 > 100 µM

CC[C@]1(Cc2ccc(OC)c(OC)c2)[C@@H]2C[C@@H](C(=O)OC)ON2O[C@H](OC2CCCC2(c2ccccc2)c2ccccc2)[C@@H]1OC(C)=O (some centres not stated)
inactive: ACHN > 100 µM | SNB-75 > 100 µM | SNB-19 > 100 µM | CAKI-1 > 100 µM | CCRF-CEM > 100 µM | HT-29 > 100 µM | KM12 > 100 µM | LOX IMVI > 100 µM | A549 > 100 µM | MDA-MB-435 > 100 µM | SN12C > 100 µM | NCI-H23 > 100 µM | IGROV-1 > 100 µM | OVCAR-5 > 100 µM | M14 > 100 µM | U-251 > 100 µM | NCI/ADR-RES > 100 µM | SK-MEL-2 > 100 µM

COc1cc2oc(-c3ccc(O)cc3)cc(=O)c2c(OC)c1O
inactive: ACHN 32.7 µM | SNB-75 14.5 µM | SNB-19 45.4 µM | CAKI-1 > 100 µM | CCRF-CEM > 100 µM | HT-29 > 100 µM | LOX IMVI 60.5 µM | A549 89.9 µM | MDA-MB-435 > 100 µM | SN12C 68.7 µM | NCI-H23 > 100 µM | IGROV-1 57.3 µM | OVCAR-5 > 100 µM | M14 > 100 µM | Malme-3M > 100 µM | U-251 38.9 µM | NCI/ADR-RES > 100 µM | SK-MEL-2 > 100 µM
